Data as given in paper PMC4457802 (PLoS ONE, 2015).
≈ marks a conversion by molar mass, not a printed value. Like-named read-outs stand apart in the source and are kept apart here. Positions of bridges follow the written chain, without caps; N, C: chain ends. Residues, ends and D or L forms follow the SMILES beside them.

Experiments:
[1] = tested on: S. pneumoniae (30 clinical isolates); assay type: cell-based, Streptococcus pneumoniae; settings: for MIC S. pneumoniae (30 clinical isolates): broth microdilution, CAMHB, 20-24hr, 37°C, 5% CO2, lowest concentration that completely inhibits growth
Excerpt: (§1) Thirty (30) Pneumococcal clinical isolates were obtained from University of Malaya Medical Centre (UMMC). For broad-spectrum activity of AMPs, E. coli ATCC 25922, Staphylococcus aureus ATCC 25923, P. aeruginosa ATCC 15442, Acinetobacter baumanii ATCC 15308, and one clinical isolate of each methicillin resistant S. aureus (MRSA), […], citrobacter spp., and K. pneumoniae were used in this study.
(§2) The minimum inhibitory concentration (MIC) of the peptides against 30 pneumococcal isolates was determined by broth microdilution protocol as indicated by the CLSI guidelines (Clinical and Laboratory Standards Institute). Briefly, bacterial strains were grown for 18–24 hr at 37°C under 5% CO2. Direct suspension of the colonies were made in cationically-adjusted Müeller-Hinton broth (CAMHB) and adjusted to OD 625 0.08–0.1 which corresponds to 1 ~ 2 x10^8 CFU/ml followed by serial ten-fold dilutions to give 1x10^6 CFU/ml. 50μl of bacterial suspension were added to 96-well round bottom microtiter plates containing equal volume of peptides at different concentrations (1.95, 3.90, 7.81, 15.62, 31.25, 62.5, 125, 250μg/ml) and the 96-well plates were incubated for 20-24hr at 37°C in the presence of 5% CO2.

[2] = tested on: Acinetobacter baumanii ATCC 15308; assay type: cell-based
Excerpt: as §1, §2

[3] = tested on: E. coli ATCC 25922; assay type: cell-based
Excerpt: as §1, §2

[4] = tested on: Enterococcus cloacae; assay type: cell-based
Excerpt: as §1, §2

[5] = tested on: K. pneumoniae; assay type: cell-based
Excerpt: as §1, §2

[6] = tested on: Methicillin resistant S. aureus (MRSA); assay type: cell-based
Excerpt: as §1, §2

[7] = tested on: P. aeruginosa ATCC 15442; assay type: cell-based
Excerpt: as §1, §2

[8] = tested on: citrobacter spp; assay type: cell-based
Excerpt: as §1, §2

[9] = tested on: human erythrocytes; test: Hemolytic activity assay; assay type: cell-based; settings: 250μg/ml; 4% human RBCs in PBS, 1hr, 37°C, absorbance 560 nm, relative to 0.1% Triton X-100, triplicate
Procedure: The hemolytic activity of the peptides was tested using human erythrocytes as described previously. Human red blood cells (RBCs) were freshly collected from a healthy donor, washed three times using sterile phosphate buffered saline (PBS) and centrifuged at 2000 rpm for 10 min until the upper solution became clear. RBCs were diluted to a final concentration of 4%, and 100μl of peptides at different concentrations (1.95 to 250μg/ml) were mixed with equivalent volumes of erythrocyte suspensions. After 1hr of incubation at 37°C, the cells were centrifuged at 2000 rpm for 10 min and the absorbance of the supernatants was measured at 560 nm using GloMax Multi Detection System (Promega, USA). PBS and 0.1% Triton X-100 were used as negative and positive controls, respectively. The assay was done in triplicate, and percentage of hemolysis was calculated using the following formula: 100% hemolysis = 100 (Apeptide-APBS) / (Atriton-APBS). We obtained the blood from the Blood Bank of University […] Medical Centre and ethical clearance for this work was approved by the Scientific and Ethical Committee of UMMC (Ethics Committee/IRB Reference No: 321.4). Written informed consent was obtained for each collection.

[10] = tested on: S. aureus ATCC 25923; assay type: cell-based, Staphylococcus aureus
Excerpt: as §1, §2

[11] = tested on: E. coli; settings: cited from earlier work
[12] = tested on: S. aureus; settings: cited from earlier work
[13] = tested on: NL-20 normal lung cell line; assay type: cell-based, human
Procedure: (§3) CellTiter 96 AQueous Non-Radioactive Cell Proliferation assay (Promega, USA) was used to evaluate the cytotoxic effects of peptides. WRL-68 (ATCC CL-48) and NL-20 (ATCC CRL2503) cell lines were purchased from American Type Culture Collection (ATCC, USA). The cell lines were grown in Dulbecco's modified Eagle's medium (DMEM) and Ham’s F-12 medium, respectively. Cells were supplemented with 10% (v/v) fetal bovine serum (FBS) in T75 flasks and incubated at 37°C in the presence of 5% CO2. Cells were seeded into 96-well plates at a density of 1×10^4 and 3×10^4 cells per well, respectively. Peptides were added to the wells at different concentrations (1.95, 3.90, 7.81, 15.62, 31.25, 62.5, 125, and 250μg) and plates were incubated at 37°C under 5% CO2 for 24, 48, and 72 hrs. Medium with and without cells was used as positive and negative controls, respectively. After incubation, 20μl of the reagent were added to each well and incubated for 1 hr at 37°C under 5% CO2. Metabolically active cells convert the yellow MTS to purple formazan, allowing for monitoring of the reaction. The absorbance was monitored at 490 nm using GloMax Multi Detection System (Promega, USA). The percentage of viable cells was calculated according to the following formula: 100 (AT-AB/AC-AB), where AT and AC are the absorbance of treated and control cells (100% survival). AB is the absorbance of medium alone. The assay was done in triplicate.

[14] = tested on: WRL-68 normal liver cell line; assay type: cell-based, human
Procedure: as §3

[15] = tested on: Streptococcus pneumoniae; test: Time killing assay; assay type: cell-based; settings: 1×MIC, MHB, 37°C, sampled every 30 min to 240 min, triplicate
Procedure: The bactericidal activities of peptides were performed as described previously. […] 10μl of bacterial suspensions were removed at various time intervals (30, 60, 90, 120, 150, 180, 210, and 240 min), serially diluted in PBS and plated onto Columbia agar with 5% sheep blood for 20-24hr at 37°C in the presence of 5% CO2 to obtain viable colonies. Erythromycin and ceftriaxone were used as positive control and the assay was performed in triplicate.

[16] = numbers in parentheses are micromolar concentrations, unit of the source corrected
[17] = numbers in parentheses are micromolar concentrations

Compound | MIC S. pneumoniae (30 clinical isolates), in parentheses [1, 16] [µg/mL] | MIC Acinetobacter baumanii ATCC 15308, in parentheses [2, 17] | MIC E. coli ATCC 25922, in parentheses [3, 16] [µg/mL] | MIC Enterococcus cloacae, in parentheses [4, 17] | MIC K. pneumoniae, in parentheses [5, 17] | MIC MRSA, in parentheses [6, 16] [µg/mL] | MIC P. aeruginosa ATCC 15442, in parentheses [7, 16] [µg/mL] | MIC citrobacter spp, in parentheses [8, 17] | MIC S. pneumoniae (30 clinical isolates) [1] [µg/mL] | MIC S. aureus ATCC 25923, in parentheses [10, 16] [µg/mL] | concentration at which toxic, NL-20 [13] [µg/mL] | concentration at which toxic, WRL-68 [14] [µg/mL] | time to completely kill 10^6 CFU/ml of S. pneumoniae [15] [min] | also measured
CC[C@H](C)[C@H](N)C(=O)N[C@@H](CC(C)C)C(=O)N1CCC[C@H]1C(=O)N[C@@H](Cc1c[nH]c2ccccc12)C(=O)N[C@@H](CCCCN)C(=O)N[C@@H](Cc1c[nH]c2ccccc12)C(=O)N1CCC[C@H]1C(=O)N[C@@H](Cc1c[nH]c2ccccc12)C(=O)N[C@@H](Cc1c[nH]c2ccccc12)C(=O)N1CCC[C@H]1C(=O)N[C@@H](Cc1c[nH]c2ccccc12)C(=O)N[C@@H](CCCNC(=N)N)C(=O)N[C@@H](CCCNC(=N)N)C(N)=O [Indolicidin, reference compound] | 15.6 to 31.2 (≈ 8.19 to 16.4 µM) | >250 (131) micromolar | 31.2 (≈ 16.4 µM) | >250 (>131) micromolar | >250 (>131) micromolar | 31.2 (≈ 16.4 µM) | 31.2 (≈ 16.4 µM) | >250 (>131) micromolar | – | – | – | – | – | hemolytic activity [9]: 56.98%
CC[C@H](C)[C@H](NC(=O)[C@H](CCSC)NC(=O)[C@H](C)NC(=O)[C@@H]1CCCN1C(=O)[C@@H](NC(=O)[C@@H](NC(=O)[C@H](CCCCN)NC(=O)[C@@H](NC(=O)[C@H](CC(C)C)NC(=O)CNC(=O)CNC(=O)[C@H](CC(C)C)NC(=O)[C@@H](N)Cc1ccccc1)[C@@H](C)CC)[C@@H](C)CC)C(C)C)C(=O)N[C@H]1CSSC[C@@H](C(=O)O)NC(=O)[C@H](CCCCN)NC(=O)[C@H](CCCCN)NC(=O)[C@H]([C@@H](C)O)NC(=O)[C@H](C(C)C)NC(=O)[C@H](C)NC1=O [Ranalexin, reference compound] (H-FLGGLIKIVPAMICAVTKKC-OH; disulfide 14-20; N-terminus assumed) | – | – | – | – | – | – | – | – | – | – | – | – | – | MIC S. pneumoniae (30 clinical isolates), in parentheses ([1]; 30 clinical isolates): 62.5 µg/mL (≈ 29.7 µM); MIC Acinetobacter baumanii ATCC 15308, in parentheses ([2]; ATCC 15308): >250 (>118) micromolar; MIC E. coli ATCC 25922, in parentheses ([3]; ATCC 25922): 62.5 µg/mL (≈ 29.7 µM); MIC Enterococcus cloacae, in parentheses [4]: >250 (>118) micromolar; MIC K. pneumoniae, in parentheses [5]: >250 (>118) micromolar; MIC MRSA, in parentheses ([6]; Methicillin resistant): 31.2 µg/mL (≈ 14.9 µM); MIC P. aeruginosa ATCC 15442, in parentheses ([7]; ATCC 15442): 125 µg/mL (≈ 59.4 µM); MIC citrobacter spp, in parentheses [8]: >250 (>118) micromolar; MIC S. aureus ATCC 25923, in parentheses ([10]; ATCC 25923): 31.2 µg/mL (≈ 14.9 µM); MIC against E. coli [11]: 32 µg/mL (≈ 15.2 µM); MIC against S. aureus [12]: 4 µg/mL (≈ 1.9 µM)
FLGGLIKWKWPWWPWRR-NH2 [RN7-IN10, hybrid peptide of ranalexin and indolicidin] | 7.81 to 15.6 | 31.25 (13.51) micromolar | 7.81 | >250 (>108) micromolar | >250 (>108) micromolar | 7.81 | 31.2 | >250 (>108) micromolar | 7.81 to 15.62 | 7.81 | ≥ 125 | ≥ 62.5 | 30 | –
FLGGLIKWPWWPWRR-NH2 [RN7-IN8, hybrid peptide of ranalexin and indolicidin] | 7.81 to 15.6 | 62.5 (31.3) micromolar | 7.81 | >250 (>125) micromolar | >250 (>125) micromolar | 7.81 | 31.2 | >250 (>125) micromolar | 7.81 to 15.62 | 7.81 | ≥ 125 | ≥ 62.5 | 120 | –
FLGGLIKWWPWRR-NH2 [RN7-IN6, hybrid peptide of ranalexin and indolicidin] | 7.81 to 15.6 | 31.25 (18.23) micromolar | 7.81 | >250 (>145.84) micromolar | >250 (>145.84) micromolar | 7.81 | 31.2 | >250 (>145.84) micromolar | 7.81 to 15.62 | 7.81 | ≥ 125 | ≥ 62.5 | 240 | –
